From the supplement of paper PMC8967900

Columns and labels:
Experiment in all cases: selective drug sensitivity score (sDSS, relative to normal bone marrow) (sDSS (score)); higher = more potent and effective on the cell line relative to normal bone marrow cells
Settings in all cases: 72 h
PEER = test system: PEER
MN-60 = test system: MN-60
SEM cells = test system: SEM cells
DND-41 = test system: DND-41
MOLT-4 = test system: MOLT-4
ALL-SIL = test system: ALL-SIL
NALM-6 = test system: NALM-6
NALM-16 = test system: NALM-16
RCH-ACV = test system: RCH-ACV
COG-LL-319h = test system: COG-LL-319h
380 = test system: 380
MHH-CALL-4 = test system: MHH-CALL-4
COG-LL-317 = test system: COG-LL-317
LC4-1 = test system: LC4-1
CCRF-CEM = test system: CCRF-CEM
PF-382 = test system: PF-382
HAL-01 = test system: HAL-01
COG-LL-355h = test system: COG-LL-355h
KASUMI-10 = test system: KASUMI-10
KARPAS-45 = test system: KARPAS-45
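Note: ALL cell lines in 384-well plates, five doses spanning 10,000-fold, each plate scaled between vehicle and 100 µmol/L benzalkonium chloride controls, sDSS an adapted area-under-curve metric.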

SMILES | selective drug sensitivity score (PEER) | selective drug sensitivity score (MN-60) | selective drug sensitivity score (SEM cells) | selective drug sensitivity score (DND-41) | selective drug sensitivity score (MOLT-4) | selective drug sensitivity score (ALL-SIL) | selective drug sensitivity score (NALM-6) | selective drug sensitivity score (NALM-16) | selective drug sensitivity score (RCH-ACV) | selective drug sensitivity score (COG-LL-319h) | selective drug sensitivity score 380 | selective drug sensitivity score (MHH-CALL-4) | selective drug sensitivity score (COG-LL-317) | selective drug sensitivity score (LC4-1) | selective drug sensitivity score (CCRF-CEM) | selective drug sensitivity score (PF-382) | selective drug sensitivity score (HAL-01) | selective drug sensitivity score (COG-LL-355h) | selective drug sensitivity score (KASUMI-10) | selective drug sensitivity score (KARPAS-45)
CC[C@@H](C(=O)[C@@H](C)[C@@H](O)[C@H](C)[C@@H]1O[C@@H]([C@@H](CC)C(=O)O)CC[C@@H]1C)[C@H]1O[C@]2(C=C[C@@H](O)[C@]3(CC[C@@](C)([C@H]4CC[C@](O)(CC)[C@H](C)O4)O3)O2)[C@H](C)C[C@@H]1C [Salinomycin] (top concentration 50000 nM) | 10.5 | 0.3 | -5.8 | 4.7 | -5.3 | 0.6 | -4.9 | 0.3 | -15.4 | -0.8 | 2.6 | 8.5 | -2.2 | -10.9 | 2 | -5.4 | 5.6 | -3.1 | 1.8 | 5.4
CNC(=O)CN1CCC(Oc2cc3c(Nc4cccc(Cl)c4F)ncnc3cc2OC)CC1 [Sapitinib] (top concentration 1000 nM) | 0 | 0 | 0 | 0 | 0 | 0 | 0 | 0 | 0 | 0 | 0 | 0 | 0 | 0 | 0 | 0 | 0 | 0 | 0 | 0
O[C@H]1CC[C@H](Nc2ncc3nc(Nc4c(F)cc(F)cc4F)n([C@H]4CCOC4)c3n2)CC1 [Tanzisertib] (top concentration 10000 nM) | 0 | 0 | 0 | 0 | 0 | 0 | 0 | 1.2 | 0 | 0 | 0 | 0.2 | 0 | 0 | 0 | 0 | 0 | 0.8 | 0 | 0
CO[C@H]1C[C@@H]2CC[C@@H](C)[C@@](O)(O2)C(=O)C(=O)N2CCCC[C@H]2C(=O)O[C@H]([C@H](C)C[C@@H]2CC[C@@H](OC(=O)C(C)(CO)CO)[C@H](OC)C2)CC(=O)[C@H](C)/C=C(\C)[C@@H](O)[C@@H](OC)C(=O)[C@H](C)C[C@H](C)/C=C/C=C/C=C/1C [Temsirolimus] (top concentration 100 nM) | 7.16 | 2.46 | 1.36 | 3.66 | -1.24 | 2.76 | -2.34 | 0.16 | 20.8 | 4.66 | 25.5 | -3.54 | 3.96 | 3.46 | 7.76 | 7.46 | -0.74 | -2.54 | -5.04 | 2.26
COc1cc([C@@H]2c3cc4c(cc3[C@@H](O[C@@H]3O[C@@H]5CO[C@@H](c6cccs6)O[C@H]5[C@H](O)[C@H]3O)[C@H]3COC(=O)[C@H]23)OCO4)cc(OC)c1O [Teniposide] (top concentration 10000 nM) | 0 | 0 | 0 | 0 | 0 | 0 | 0 | 0 | 0 | 0 | 0 | 0 | 0 | 0 | 0 | 0 | 0 | 0 | 0 | 0
Oc1nc(-c2ccc(C(F)(F)F)cc2)nc2c1CSCC2 [XAV939] (top concentration 10000 nM) | 0.96 | -0.14 | 0.56 | -0.14 | -0.14 | -0.14 | -0.14 | -0.14 | 0.06 | -0.14 | 1.96 | -0.14 | -0.14 | 0.56 | -0.14 | -0.14 | -0.14 | 0.46 | -0.14 | -0.14
